Laboratory results as given in patent US20120141381A1, “Methods For Loading Contrast Agents Into A Liposome” (Duke University Office of Technology & Venture, priority 2009, published 2012).

Assay: Measurement of relaxivity of Gd-HP-DO3A-Dox-LTSL at 1.5T
Format: physicochemical
Conditions: free contrast agent
Method: T1 of all of the solutions was calculated from the fit of signal intensity vs. inversion time in images obtained with a T1-weighted inversion recovery sequence with variable inversion time (T1=50, 75, 100, 150, 300, 450, 600, 900, 1050 ms). Relaxivity was obtained as the slope of 1/T1 vs. Gd-HP-DO3A concentration. All imaging was performed using a clinical 1.5T MR scanner (Philips Medical Systems, Best, The Netherlands).

Q: Which “relaxivity (slope of 1/T1 vs concentration)” value does the source give for `CC(O)CN1CCN(CC(=O)[O-])CCN(CC(=O)[O-])CCN(CC(=O)[O-])CC1.[Gd+3]` (stereo not shown) [ProHance®, gadolinium complex of 10-(2-hydroxy-propyl)-1,4,7,10-tetraazacyclododecane-1,4,7-triacetic acid] here?
A: The value was 4.05 ± 0.14 mM⁻¹ s⁻¹.
